Data published in patent US7358379B2, “Steroid conjugates, preparation thereof and the use thereof” (Bionature E.A. Limited, priority 2002, dated 2008).

Legend:
[1] = tested on: membrane testosterone receptors in LNCaP cells; assay: Displacement binding of [3H]testosterone on LNCaP cell membranes; parameters: species or system human; conditions: 5 nM [3H]testosterone, competitor 10^-12-10^-6 M
Experimental: (§1) Cells, cultured in 150 cm^2 flasks without serum, were washed twice with phosphate-buffered saline (PBS), removed by scraping and centrifuged at 1500 rpm. Pelleted cells were homogenized by sonication in 50 mM Tris-HCl buffer pH 7.4 containing freshly added protease inhibitors (10 μg/ml PMSF and 1 μg/ml aprotinin). Unbroken cells were removed by centrifugation at 2500 g for 15 min. Membranes were obtained by centrifugation at 45,000 g for 1 hour, and washed once by the same buffer. Protein concentration was measured by the method of Bradford.
(§2) Saturation binding experiments were performed in a final volume of 0.1 ml, containing cell membranes at a final protein concentration of 2 mg/ml and at least 6 different concentrations of [^3H]testosterone (ranging 2-50 nM) without (total binding) or with (non-specific binding) a 100-fold molar excess of unlabelled androgen (DHT). […] In both types of binding experiments, after an overnight incubation at 4° C., bound radioactivity was separated by filtration under reduced pressure through GF/B filters previously soaked in 0.5% polyethylenimine (PEI) in water and rinsed three times with ice-cold Tris-HCl buffer. Filters were mixed with 4 ml scintillation cocktail and the bound radioactivity was counted in a scintillation counter (Tricarb, Series 4000, Packard) with 60% efficiency for Tritium. […]

[2] = tested on: FAK→PI-3 kinase→Cdc42/Rac1→actin reorganization in LNCaP cells; assay: Signalling FAK, PI-3 kinase, Cdc42/Rac1, actin reorganization (immunoprecipitation, kinase assays, affinity precipitation); assay type: cell-based, human
Experimental: Testosterone-BSA or DHT-treated, as well as untreated (control) cells were washed three times with ice-cold PBS and suspended in cold lysis buffer containing 1% Nonidet P-40, 20 mM Tris pH 7.4 and 137 mM NaCl, supplemented with protease and phosphatase inhibitors. Cleared lysates were preadsorbed with protein A-Sepharose for 1 h at 4° C., centrifuged and the supernatants (equal amounts of protein) were subjected to immunoprecipitation using the indicated antibodies and the protein A-Sepharose beads.
The lipid kinase activity of PI-3 kinase was measured by the method of Auger et al with minor modifications. Protein A-Sepharose beads containing immunoprecipitated phosphotyrosine proteins were washed three times with Buffer A (20 mM Tris pH 7.4, 137 mM NaCl, 1 mM CaCl2, 1 mM MgCl2, 1% Nonidet P-40, 0.1 mM Na3VO4), three times with 5 mM LiCl in 0.1 M Tris (pH 7.4) and twice with TNE (10 mM Tris pH 7.4, 150 mM NaCl, 5 mM EDTA, 0.1 mM Na3VO4). […]
For immunoblot analysis, the cell lysates or the immunoprecipitates were suspended in Laemmli's sample buffer and separated by SDS-PAGE. […] Blots were developed using the ECL system and the band intensities were quantified by PC-based image analysis (Image Analysis Inc., Ontario, Canada). […]

[3] = tested on: membrane testosterone receptors in LNCaP cells; assay: Saturation binding of [3H]testosterone to LNCaP cell membranes; parameters: species or system human; conditions: [3H]testosterone 2-50 nM, LNCaP membranes 2 mg/ml, overnight 4° C., non-specific binding with excess DHT; read-out: KD (Scatchard analysis)
Experimental: as §1, §2

LNCaP cells = assay: Confocal laser microscopy of membrane binding on LNCaP cells; assay type: cell-based, human; conditions: 30 min incubation
Experimental: LNCaP cells were allowed to grow on poly-L-lysine coated glass coverslips for at least 48 hours before culture medium was replaced with serum free medium. After a 24-hour period, cells were washed twice with PBS and incubated with Testosterone-BSA-FITC for 30 min in the presence or in the absence of DHT. As a negative control BSA-FITC was used. Cells were then washed twice with PBS and fixed with 2% PFA in PBS for 30 min. Coverslips were mounted on to slides using a 1:1 (v/v) mixture of glycerol and Vestashield (Vector, Burlingame, Calif.). Specimens were analysed using a confocal laser scanning microscope (CLSM) (Leica TCS-NT, Lasertechnik, Heidelberg, Germany).
(§3) The presence of membrane testosterone receptors was equally identified using the testosterone analog testosterone3-(O-carboxymethyl)oxime-BSA-FITC, obtained from Sigma (St Louis, Mo.). This analog is not capable to penetrate the cells, because of a covalent attachment of the steroid with BSA. […] The membrane binding was equally verified by confocal laser microscopy, as shown in the right panel of FIG. 2.

[4] = tested on: actin cytoskeleton of LNCaP human prostate cancer cells; assay: Determination of monomeric and polymerized actin; assay type: cell-based; conditions: 10^-7 M, 10 min
Experimental: For measurements of the monomeric (Triton soluble) and polymerized (Triton insoluble) actin, LNCaP cells were incubated for 10 min with or without DHT or testosterone-BSA (10^−7 M). Then, 500 μl of Triton-extraction buffer (0.3% TritonX-100, 5 mM Tris, pH 7.4, 2 mM EGTA, 300 mM sucrose, 2 μM phalloidin, 1 mM PMSF, 10 μg/ml leupeptin, 20 μg/ml aprotinin, 1 mM sodium orthovanadate, and 50 mM NaF) were added, and the mixture was incubated for 5 minutes on ice. After removing the buffer, soluble proteins were precipitated with equal volumes of 6% PCA. The Triton-insoluble fraction remaining on the plate was precipitated with 1 ml of 3% PCA. Equal volumes of each fraction were subjected to SDS-polyacrylamide gel electrophoresis (SDS-PAGE). The resulting protein-bands were transferred onto nitrocellulose membrane, and the membrane was blocked with 5% nonfat dry milk in TBS-T (20 mM Tris pH 7.6, 137 mM NaCl, 0.05% Tween-20) for 1 h at room temperature. Antibody solutions (in TBS-T) were added for 1 h at room temperature [monoclonal mouse anti-actin first antibody (Amersham-Pharmacia, Bukinghamshire, UK) and second horseradish peroxidase-coupled antibody (Chemicon, Temecula, Calif.)]. Blots were developed using the ECL system (Amersham-Pharmacia, Bukinghamshire, UK) and the band intensities were quantified by PC-based image analysis (Image Analysis Inc., Ontario, Canada). […]

[5] = tested on: LNCaP tumors in nude mice; assay: In vivo effect in nude mice bearing implanted LNCaP tumors; conditions: four weeks
Experimental: FIG. 9 presents the effect of testosterone-BSA administration in nude mice, bearing implanted tumors. Arrows show the injection times of testosterone-BSA (500 μl of a 5×10^−6 M solution) with or without addition of 10 mg/kg Taxol®.
Nude mice were injected in the back with 5×10^6 LNCaP cells diluted in Matrigel® (Sigma, St Louis, Mo.) in a total volume of 0.1 ml. After 4 weeks, macroscopical tumors were developed, and treatment was initiated, as follows: Drugs, diluted in PBS were injected intraperitoneally 3 times per week, in a total volume of 0.5 ml. Animals were divided in four groups: The first group received 5×10^−6 M BSA. The second group was injected with 5×10^−6 M testosterone-BSA conjugate. The third group was injected with 10 mg/ml Taxol®, while in the fourth group a combination of testosterone-BSA and Taxol® was introduced. Tumors were measured after four weeks of treatment. Tumors were excised, measured, weighted and send to a pathologist for further analysis.
As presented in FIG. 9, testosterone-BSA induced a time-dependent decrease in tumor mass by 53%. Addition of Taxol® produces a dramatic decrease of tumor weight by 77%. […] Therefore it is possible that the decrease if tumor mass could be greater for longer periods of treatment In addition, apoptosis was observed histologically in all tumors studied.

[6] = tested on: prostate cancer LNCaP cells; assay: Cell number by tetrazolium salt assay; assay type: cell-based, human; conditions: 24 hours
Experimental: The human prostate cancer LNCaP cell line, originally isolated from a lymph node metastasis of prostate adenocarcinoma, was purchased from DSMZ (Braunschweig, Germany). Cells were cultured in RPMI 1640 medium supplemented with 10% heat inactivated fetal bovine serum (FBS) at 37° C. in a humidified atmosphere of 5% CO2 in air. They were subcultured once a week and incubated in serum-free medium for 24 h before any experiment. All culture media were purchased from Gibco BRL (Life Technologies, Paisley, UK).
Cell number was assayed using the tetrazolium salt assay. Cells were incubated for 3 h at 37° C. with the tetrazolium salt (3-(4,5 dimethylthiazol-2-yl)-2,5 diphenyl tetrazolium bromide, Sigma, St Louis, Mo.). Living cells reduced the dye to purple formazan seen as dark blue crystals. At the end of the incubation period they were dissolved with propanol-1 and the absorbance was measure at 575 nm, within one hour.
In view of the above results, we incubated prostate cancer LNCaP cells with testosterone-BSA alone (10^−7 M) or together with Taxol® (10^−8 M) for 24 hours. […] In addition, a potentiation of the action of Taxol® by ˜7% was also found. […]

[7] = tested on: membrane testosterone receptors in LNCaP cells; assay: Flow cytometry detection of membrane binding on LNCaP cells; parameters: species or system human; conditions: 10^-7 M
Experimental: LNCaP cells, cultured in serum free medium for 24 hrs, were detached from the culture flask by scraping and suspended in PBS at a density of 10^6 cells/ml. They were incubated at room temperature with 10^−7 M testosterone-BSA-FITC conjugate for different periods of time (1 min to 1 hour). A thousand-fold BSA-FITC was used to determine non-specific binding. Cells were analysed by flow cytometry using a Coulter Epics L-MCL apparatus (Beckman-Coulter Inc. Foullerton Calif., USA) in a sample size of 10,000 cells gated on the basis of forward and side scatter. Testosterone3-(O-carboxymethyl)oxime-BSA-FITC (named testosterone-BSA-FITC), testosterone3-(O-carboxymethyl)oxime-BSA (named testosterone-BSA), estradiol6-(O-carboxymethyl)oxime-BSA-FITC (named estradiol-BSA-FITC), progesterone3-(O-carboxymethyl)oxime-BSA-FITC (named progesterone-BSA-FITC) and BSA-FITC were obtained from Sigma (St Louis, Mo.).
as §3

C[C@]12CCC(=O)C[C@@H]1CC[C@@H]1[C@@H]2CC[C@]2(C)[C@@H](O)CC[C@@H]12 [DHT]
displacement of radiolabeled testosterone [1]: produced a displacement of radiolabeled testosterone

CC(=O)[C@H]1CC[C@H]2[C@@H]3CCC4=CC(=O)CC[C@]4(C)[C@H]3CC[C@]12C [progesterone]
lower affinity in displacing radiolabelled testosterone (fold) ([1]; compared with DHT): 10^2 fold

C[C@]12CC[C@H]3[C@@H](CCC4=CC(=O)CC[C@@]43C)[C@@H]1CC[C@@H]2O [testosterone]
activation of signalling cascade FAK→PI-3 kinase→Cdc42/Rac1→actin reorganization [2]: less active than testosterone-BSA conjugate
Kd [3]: 10.9 nM

testosterone3-(O-carboxymethyl)oxime-BSA [testosterone-BSA]
localisation of staining (internalization) (LNCaP cells): only membrane staining was found
ratio of soluble (monomeric) to insoluble (polymerised) actin [4]: significant decrease
decrease in tumor mass ([5]; nude mice with LNCaP tumors, testosterone-BSA 5×10^-6 M i.p. 3 times per week): 53%
decrease of tumor weight ([5]; nude mice with LNCaP tumors, testosterone-BSA 5×10^-6 M with addition of Taxol®, i.p. 3 times per week): 77%
tolerance of treatment ([5]; nude mice, 0.5 ml of 5×10^-6 M intraperitoneally 3 times per week): supported very well
potentiation of the action of Taxol® ([6]; testosterone-BSA 10^-7 M together with Taxol® 10^-8 M): ~7%
decrease of cells ([6]; testosterone-BSA alone 10^-7 M): 50%
time at which association with membrane receptors was observed ([7]; flow cytometry): 1 min
time at which association with membrane receptors was maximal ([7]; flow cytometry, unchanged after 30 min): 10 min
membrane binding by flow cytometry ([7]; room temperature): specific membrane binding
